Laboratory results from US20250195521A1 (Revolution Medicines, Inc., priority 2020, published 2025).
“And” between values parts separate entries of the source, which are not always exact repeats. Equal entries are not always repeated.

Legend:
[1] = biological target: KRAS WT (Homo sapiens (Human), UniProt P01116+P62937); experiment: Ras-Raf disruption/FRET/MOA assay (BRAF RBD, Cyclophilin A); type: biochemical; settings: read-out: KRAS WT FRET data IC50
Experimental: (§1) Compound is present in plate wells as a 10-point 3-fold dilution series starting at a final concentration of 30 μM. After incubation at 25° C. for 3 hours, a mixture of Anti-His Eu—W1024 and anti-GST allophycocyanin is then added to assay sample wells at final concentrations of 10 nM and 50 nM, respectively, and the reaction incubated for an additional 1.5 hours. […] Compounds that facilitate disruption of a Ras: RAF complex are identified as those eliciting a decrease in the TR-FRET ratio relative to DMSO control wells.
(§2) Disruption of B-Raf Ras-Binding Domain (BRAF^RBD) Interaction with K-Ras by Compounds of the Invention (Also Called a FRET Assay or an MOA Assay)
(§3) Note—The following protocol describes a procedure for monitoring disruption of K-Ras G12C (GMP-PNP) binding to BRAF^RBD by a compound of the invention. This protocol may also be executed substituting other Ras proteins or nucleotides.
(§4) The purpose of this biochemical assay was to measure the ability of test compounds to facilitate ternary complex formation between a nucleotide-loaded K-Ras isoform and Cyclophilin A; the resulting ternary complex disrupts binding to a BRAF^RBD construct, inhibiting K-Ras signaling through a RAF effector. Data is reported as IC50 values.
(§5) In assay buffer containing 25 mM HEPES pH 7.3, 0.002% Tween20, 0.1% BSA, 100 mM NaCl and 5 mM MgCl2, tagless Cyclophilin A, His6-K-Ras-GMPPNP, and GST-BRAF^RBD were combined in a 384-well assay plate at final concentrations of 25 μM, 12.5 nM and 50 nM, respectively. Compound was present in plate wells as a 10-point 3-fold dilution series starting at a final concentration of 30 μM. After incubation at 25° C. for 3 hours, a mixture of Anti-His Eu—W1024 and anti-GST allophycocyanin was then added to assay sample wells at final concentrations of 10 nM and 50 nM, respectively, and the reaction incubated for an additional 1.5 hours. […] Compounds that facilitate disruption of a K-Ras: RAF complex were identified as those eliciting a decrease in the TR-FRET ratio relative to DMSO control wells.

[2] = biological target: KRAS G13C (Homo sapiens (Human), UniProt P01116+P62937, G13C); experiment: as above; type: biochemical; settings: read-out: KRAS G13C FRET IC50
Experimental: as §1, §2, §3, §4, §5

[3] = biological target: KRAS G12S (Homo sapiens (Human), UniProt P01116+P62937, G12S); experiment: as above; type: biochemical; settings: read-out: KRAS G12S FRET IC50
Experimental: as §1, §2, §3, §4, §5

[4] = biological target: NRAS G12C (Homo sapiens (Human), UniProt P01111+P62937, G12C); experiment: as above; type: biochemical; settings: read-out: NRAS G12C FRET data IC50
Experimental: as §1, §2, §3, §4, §5

[5] = biological target: KRAS G12C (Homo sapiens (Human), UniProt P01116+P62937, G12C); experiment: as above; type: biochemical; settings: read-out: KRAS G12C FRET IC50
Experimental: as §1, §2, §3, §4, §5

[6] = biological target: KRAS G13D (Homo sapiens (Human), UniProt P01116+P62937, G13D); experiment: as above; type: biochemical; settings: read-out: KRAS G13D FRET data IC50
Experimental: as §1, §2, §3, §4, §5

[7] = biological target: KRAS G12V (Homo sapiens (Human), UniProt P01116+P62937, G12V); experiment: as above; type: biochemical; settings: read-out: KRAS G12V FRET IC50
Experimental: as §1, §2, §3, §4, §5

[8] = biological target: KRAS G12D (Homo sapiens (Human), UniProt P01116+P62937, G12D); experiment: as above; type: biochemical; settings: read-out: KRAS G12D FRET IC50
Experimental: as §1, §2, §3, §4, §5

[9] = system: Capan-1 cells (K-Ras G12V); experiment: CellTiter-Glo cell viability, Capan-1; type: cell-based, human; settings: Homo sapiens, CAPAN-1, 120 h, K-Ras G12V, 5-day treatment; read-out: Capan-1 Cell Viability IC50
Experimental: Note—The following protocol describes a procedure for monitoring cell viability of K-Ras mutant cancer cell lines in response to a compound of the invention. Other RAS isoforms may be employed, though the number of cells to be seeded will vary based on cell line used.
Test compounds (132.5 nl) were directly dispensed into the assay plates containing cells. […] On day 5, assay plates and their contents were equilibrated to room temperature for approximately 30 minutes. […] Luminescence was measured using the PerkinElmer Enspire. Data were normalized by the following: (Sample signal/Avg. DMSO)*100. The data were fit using a four-parameter logistic fit.

[10] = system: K-Ras G12C (NCI-H358 cells); experiment: Potency assay: pERK in NCI-H358 cells; type: cell-based, human; settings: Homo sapiens; NCI-H358 cells, 4 hours; read-out: pERK EC50 (H358 KRAS G12C)
In short: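 Cells plated the day before were exposed for 4 h at 37° C, 5% CO2 to a 10-point, 3-fold DMSO dilution series (10 mM top stock), in duplicate. Phospho-ERK was read by AlphaLISA SureFire Ultra or by In-Cell Western with DRAQ5 DNA stain, and IC50 came from a 4-parameter sigmoidal fit.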

Sequence of KRAS G13C (P01116 other isoform, or with tags, fused parts or gaps G13C): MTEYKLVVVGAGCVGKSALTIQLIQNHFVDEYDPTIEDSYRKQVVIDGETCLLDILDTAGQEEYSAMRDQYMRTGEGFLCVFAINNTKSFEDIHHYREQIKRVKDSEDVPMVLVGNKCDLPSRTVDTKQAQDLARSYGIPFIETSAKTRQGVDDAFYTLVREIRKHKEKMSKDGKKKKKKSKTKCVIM
Sequence of KRAS G13C (P62937 whole entry): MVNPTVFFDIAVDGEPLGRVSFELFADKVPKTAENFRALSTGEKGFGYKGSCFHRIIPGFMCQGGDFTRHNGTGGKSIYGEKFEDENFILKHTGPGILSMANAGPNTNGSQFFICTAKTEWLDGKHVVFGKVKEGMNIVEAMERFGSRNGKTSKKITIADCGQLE
Sequence of KRAS WT (P01116 other isoform, or with tags, fused parts or gaps): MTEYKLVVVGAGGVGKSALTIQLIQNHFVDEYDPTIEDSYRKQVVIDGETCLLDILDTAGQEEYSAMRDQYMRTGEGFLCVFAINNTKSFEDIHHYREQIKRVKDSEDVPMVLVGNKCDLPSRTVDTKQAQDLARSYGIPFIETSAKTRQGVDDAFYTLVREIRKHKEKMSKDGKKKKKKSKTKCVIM
Sequence of KRAS WT (P62937 whole entry): as the sequence (P62937 whole entry) above
Sequence of KRAS G12C (P01116-2 other isoform, or with tags, fused parts or gaps G12C): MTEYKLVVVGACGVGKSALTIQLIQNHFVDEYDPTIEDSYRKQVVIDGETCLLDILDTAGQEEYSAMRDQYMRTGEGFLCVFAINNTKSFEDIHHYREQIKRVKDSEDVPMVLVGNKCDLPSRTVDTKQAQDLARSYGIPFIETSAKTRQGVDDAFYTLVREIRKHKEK
Sequence of KRAS G12C (P62937 whole entry): as the sequence (P62937 whole entry) above
Sequence of KRAS G12V (P01116 other isoform, or with tags, fused parts or gaps G12V): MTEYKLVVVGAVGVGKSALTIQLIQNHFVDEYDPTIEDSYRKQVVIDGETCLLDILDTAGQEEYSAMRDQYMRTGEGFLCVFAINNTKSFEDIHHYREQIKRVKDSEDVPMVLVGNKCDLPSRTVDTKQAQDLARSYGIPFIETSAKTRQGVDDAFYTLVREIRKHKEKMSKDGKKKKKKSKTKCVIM
Sequence of KRAS G12V (P62937 whole entry): as the sequence (P62937 whole entry) above
Sequence of NRAS G12C (P01111 whole entry G12C): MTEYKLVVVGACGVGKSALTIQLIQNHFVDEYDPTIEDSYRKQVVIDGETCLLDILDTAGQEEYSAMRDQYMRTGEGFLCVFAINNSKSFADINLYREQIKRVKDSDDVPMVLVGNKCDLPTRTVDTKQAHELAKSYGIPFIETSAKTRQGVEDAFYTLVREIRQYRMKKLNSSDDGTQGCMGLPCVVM
Sequence of NRAS G12C (P62937 whole entry): as the sequence (P62937 whole entry) above
Sequence of KRAS G12D (P01116 other isoform, or with tags, fused parts or gaps G12D): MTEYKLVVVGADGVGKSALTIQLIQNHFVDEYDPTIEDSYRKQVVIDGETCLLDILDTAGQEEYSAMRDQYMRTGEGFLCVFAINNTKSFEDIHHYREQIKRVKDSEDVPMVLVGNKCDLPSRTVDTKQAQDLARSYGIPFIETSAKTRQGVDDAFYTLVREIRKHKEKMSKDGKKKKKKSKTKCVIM
Sequence of KRAS G12D (P62937 whole entry): as the sequence (P62937 whole entry) above
Sequence of KRAS G12S (P01116 other isoform, or with tags, fused parts or gaps G12S): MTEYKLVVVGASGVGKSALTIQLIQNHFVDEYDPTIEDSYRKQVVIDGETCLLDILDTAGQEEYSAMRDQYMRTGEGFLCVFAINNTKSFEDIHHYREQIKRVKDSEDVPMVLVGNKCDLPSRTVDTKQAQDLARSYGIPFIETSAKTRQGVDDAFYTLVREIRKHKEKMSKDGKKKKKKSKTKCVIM
Sequence of KRAS G12S (P62937 whole entry): as the sequence (P62937 whole entry) above
Sequence of KRAS G13D (P01116 other isoform, or with tags, fused parts or gaps G13D): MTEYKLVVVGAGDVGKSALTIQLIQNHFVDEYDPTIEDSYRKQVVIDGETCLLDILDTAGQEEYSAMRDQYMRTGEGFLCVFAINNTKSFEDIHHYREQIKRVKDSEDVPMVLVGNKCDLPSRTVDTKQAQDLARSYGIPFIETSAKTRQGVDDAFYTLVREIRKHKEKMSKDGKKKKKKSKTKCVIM
Sequence of KRAS G13D (P62937 whole entry): as the sequence (P62937 whole entry) above

| SMILES | IC50 [1] [nM] | IC50 [2] [nM] | IC50 [3] [nM] | IC50 [4] [nM] | IC50 [5] [nM] | IC50 [6] | IC50 [7] [nM] | IC50 [8] [nM] | IC50 [9] [nM] | EC50 [10] [nM] |
| --- | --- | --- | --- | --- | --- | --- | --- | --- | --- | --- |
| CCn1c(-c2cnccc2COC)c2c3cc(ccc31)-c1cc(O)cc(c1)C[C@H](NC(=O)[C@H](C(C)C)N(C)C(=O)[C@@H]1CNC[C@@H]1C(F)(F)F)C(=O)N1CCC[C@H](N1)C(=O)OCC(C)(C)C2 [Compound A79] | 100 to 1000 | 100 to 1000 | 100 to 1000 | 100 to 1000 | 100 to 1000 | 100 to 1000 nM | 1000 to 10000 | 100 to 1000 | > 10000 |  |
| CCn1c(-c2cccnc2[C@H](C)OC)c2c3cc(ccc31)-c1csc(n1)C[C@H](NC(=O)[C@H](C(C)C)N(C)C(=O)[C@H]1CCN(CCO)C1)C(=O)N1CCC[C@H](N1)C(=O)OCC(C)(C)C2 [Compound A110] | 1000 to 10000 | 1000 to 10000 | 1000 to 10000 | 1000 to 10000 | 1000 to 10000 | 1000 to 10000 nM | > 10000 | 1000 to 10000 | > 10000 |  |
| CCn1c(-c2cccnc2[C@H](C)OC)c2c3cc(ccc31)-c1cc(O)cc(c1)C[C@H](NC(=O)[C@H](C(C)C)N(C)C(=O)C1CC13CNC3)C(=O)N1CCC[C@H](N1)C(=O)OCC(C)(C)C2 (stereo partly shown) [Compound A140] | 10 to 100 | 10 to 100 | 10 to 100 | 10 to 100 | 10 to 100 | 10 to 100 nM | 10 to 100 | 10 to 100 | > 10000 |  |
| CCn1c(-c2cccnc2[C@H](C)OC)c2c3cc(ccc31)-c1cc(O)cc(c1)C[C@H](NC(=O)[C@H](C(C)C)N(C)C(=O)[C@@H]1C[C@@H]1F)C(=O)N1CCC[C@H](N1)C(=O)OCC(C)(C)C2 [Compound A160] | 10 to 100 | 10 to 100 | 100 to 1000 | 10 to 100 | 10 to 100 | 100 to 1000 nM |  | 100 to 1000 | 100 to 1000 |  |
| CCn1c(-c2cccnc2[C@H](C)OC)c2c3cc(ccc31)-c1cc(O)cc(c1)C[C@H](NC(=O)[C@H](C(C)C)N(C)C(=O)[C@H]1C[C@H]1F)C(=O)N1CCC[C@H](N1)C(=O)OCC(C)(C)C2 [Compound A162] | 10 to 100 | 10 to 100 | 10 to 100 | 10 to 100 | 10 to 100 | 10 to 100 nM |  | 100 to 1000 |  | < 5000 |
| CCn1c(-c2cccnc2[C@H](C)OC)c2c3cc(ccc31)-c1cc(O)cc(c1)C[C@H](NC(=O)C(C)Cc1ccncc1)C(=O)N1CCC[C@H](N1)C(=O)OCC(C)(C)C2 (stereo partly shown) [Compound A179] | 100 to 1000 | 100 to 1000 | 1000 to 10000 | 1000 to 10000 | 100 to 1000 | 100 to 1000 nM and 1000 to 10000 nM | 1000 to 10000 | 1000 to 10000 |  | < 5000 |
| CCn1c(-c2cccnc2[C@H](C)OC)c2c3cc(ccc31)-c1cc(O)cc(c1)C[C@H](NC(=O)C13CCCC1C3(F)F)C(=O)N1CCC[C@H](N1)C(=O)OCC(C)(C)C2 (stereo partly shown) [Compound A180] | 1000 to 10000 | 100 to 1000 | 1000 to 10000 | 1000 to 10000 | 1000 to 10000 | 1000 to 10000 nM | 1000 to 10000 | > 10000 | 1000 to 10000 |  |
